Laboratory results taken from patent publication US7763273B2, “Method for reducing methane production emanating from the digestive activities of an animal” (DSM IP Assets B.V., priority 2002, dated 2010).

Test system: strained rumen fluids
Assay: In vitro incubation of sheep rumen fluid with ground diet: formation of methane and VFA
Format: cell-based
Design: Methane production / Total VFA: unit not given here
Details: for Effect on the formation of VFA (in words) / Effect on the formation of methane (in words): in vitro, versus control
Procedure: The efficacy of some essential oil compounds obtainable from plants was tested regarding their influence on the formation of methane and VFA in an in vitro system.
According to the test 200 mg of a ground diet, containing 50% hay, 30% barley, 9.5% molasses, 10% fishmeal and 0.5% vitamins, was added to wheaton bottles. To a triplicate of bottles containing the diet, 0.6 ml of a dissolution of one of the essential oil compounds mentioned in the table below, into propylene glycol was added to each bottle.
Three sheep were fed on the ground diet and strained rumen fluids in amounts of 500 ml were mixed with 1000 ml of Colemans Simplex buffer. The buffer had the following composition.
30 ml of the combined rumen fluid and the buffer were then introduced into the bottles, and their contents were incubated under CO2 at 39° C. for 24 hours. The methane production and the total amount of VFA was then measured. […]

[1] = 0.6 ml dissolution in propylene glycol per bottle, 200 mg diet, 30 ml rumen fluid/buffer, under CO2, 39° C., 24 hours

Molecule	Effect on the formation of VFA (in words)	Effect on the formation of methane (in words)	Methane production [1]	Total VFA [1]
c1ccc2ncccc2c1 [Quinoline]	promoting effect	methane-reducing effect		
Cc1ccc(C(C)C)c(O)c1 [Thymol]	notable reducing effect	strong methane-reducing effect		
Vanilla	promoting effect	methane-reducing effect	1055	1300
